One molecule from patent publication US7598377B2, “Inhibition of phosphoinositide 3-kinase β” (AstraZeneca AB, priority 2002, dated 2009) can be followed below.

Entries after “also recorded” stand apart in the source; their conditions may differ. Where two headings read alike, the source gives them in different places.

In series [1] the test system is washed platelets. Put plainly: Shear-induced platelet aggregation (cone & plate device, single platelet count). Format: cell-based. The settings on record: 5 min, vWf 10 μg/ml, 5000 s^−1 for 5 min, read-out: inhibition of shear induced platelet aggregation, IC50. An excerpt: Platelet samples were aspirated and the level of platelet aggregation determined by analyzing the number of unincorporated single platelets using a […] hematology analyzer. All data were normalized to control experiments and expressed as the proportional increase relative to control samples.

For series [2], the system named is carotid artery occlusive thrombus formation in rats. Put plainly: Electrolytic injury carotid model in rats. Type of series: in vivo. The protocol: Treatments were given as an i.v. bolus at time−9 min (i.e. 5 min before applying the current). Error bars are average SEM from repeated-measures ANOVA. […] Error bars are ±1 SEM. Distal to the left carotid artery flow probe, a piece of Parafilm was inserted under the vessel for electrical isolation. The artery was placed onto a hook-shaped platinum electrode, after which, it was clamped distally to the electrode to occlude blood flow and a current of 7 mA was delivered for 4 min using a constant current unit (Model CCU1, Grass Instruments, Quincy, Mass., USA) connected to a Grass SD9 stimulator. The artery clamp was released immediately after this 4 min period. Blood flow was monitored for 60 min after the end of the stimulation. Thrombosis formation was defined by blood flow falling to zero.

The target of series [3] is Cdk2/cyclin A (Homo sapiens, UniProt P24941). The series is described as follows: Ser/Thr kinase assay by MDS Pharma Services (Panlabs). Format: biochemical.
Series [4] concerns the target p110γ-PI3K (Homo sapiens, UniProt P48736). The series is described as follows: In vitro enzyme assay, p110γ recombinant protein (Biological Example 1). Format: biochemical. The text has this:
Reactions were terminated and lipid products analysed as described above for the other PI 3-kinase isoforms assays.

Series [5] addresses Casein Kinase 2 (Homo sapiens, UniProt P68400). The series is described as follows: Ser/Thr kinase assay by MDS Pharma Services (Panlabs). Format: biochemical.
Series [6] concerns the target CaMK. Described as above. Type of series: biochemical.
For series [7], the target named is PKC Non-selective. Described as above. Format: biochemical.
In series [8] the test system is platelets on immobilized vWf. The series is described as follows: In vitro flow studies: platelet calcium flux and adhesion on immobilized vWf. Format: cell-based. The protocol:
The use of an in vitro-flow based adhesion assay enables us to simultaneously analyze platelet adhesion dynamics and activation (by monitoring cytosolic calcium flux) on immobilized von Willebrand factor (vWf). Briefly, isolated platelets are perfused through vWf (100 μg/ml) coated microcapillary tubes and analysis of cytosolic calcium flux conducted in real-time by confocal microscopy.
Washed platelets (1.5×10^9) suspended in PWB were incubated with the calcium indicator dyes, Oregon Green 488 BAPTA-1, AM (1 μM) and Fura Red, AM (1.25 μM), for 30 min at 37° C. Platelets were washed twice with PWB prior to being resuspended in Tyrode's buffer containing 1 mM calcium.
For static adhesion assays, platelets were allowed to settle on the surface of vWf-coated coverslips for 30 min at 37° C. For flow assays, platelets were either perfused over a vWf-coated microcapillary tube at a constant shear rate of 600, 1800 or 10,000 s^−1 or allowed to settle on the surface of a vWf-coated microcapillary tube prior to being accelerated through a shear gradient of 10,000 s^−1 over a 1 s interval. Real time platelet calcium flux in individual platelets was monitored at 1 s intervals over the 30 min incubation period or at 0.586 s intervals for up to 175 s for static and flow-based assays, respectively.

Series [9] deals with washed platelets. The series is described as follows: FACS analysis of integrin αIIbβ3 activation and P-selectin expression. Format: cell-based. The settings on record: induced by thrombin, collagen and ADP; 0.5 μM TGX-221. As to the method:
Agonists: Thrombin, 1 U/ml; ADP, […]; U46619, 1 μM; Soluble collagen 10 μg/ml.
Platelets were then stimulated with thrombin (1 U/ml), ADP ([…]), U46619 (1 μM) or collagen (10 μg/ml) for 20 min at room temperature prior to being fixed with 2% paraformaldehyde for 45 min at room temperature. Fixed platelets were washed twice with Tyrode's buffer, incubated with 1 μg/ml FITC-conjugated anti-mouse F(ab)2′ antibody for 15 min at room temperature, washed twice with Tyrode's buffer, resuspended to a final volume of 500 μl in Tyrode's buffer and analyzed by FACS.

Series [10] concerns the target p70^S6 (Homo sapiens, UniProt P23443). The series is described as follows: Ser/Thr kinase assay by MDS Pharma Services (Panlabs). Type of series: biochemical.

Chain of p110γ-PI3K (P48736 whole entry, canonical isoform): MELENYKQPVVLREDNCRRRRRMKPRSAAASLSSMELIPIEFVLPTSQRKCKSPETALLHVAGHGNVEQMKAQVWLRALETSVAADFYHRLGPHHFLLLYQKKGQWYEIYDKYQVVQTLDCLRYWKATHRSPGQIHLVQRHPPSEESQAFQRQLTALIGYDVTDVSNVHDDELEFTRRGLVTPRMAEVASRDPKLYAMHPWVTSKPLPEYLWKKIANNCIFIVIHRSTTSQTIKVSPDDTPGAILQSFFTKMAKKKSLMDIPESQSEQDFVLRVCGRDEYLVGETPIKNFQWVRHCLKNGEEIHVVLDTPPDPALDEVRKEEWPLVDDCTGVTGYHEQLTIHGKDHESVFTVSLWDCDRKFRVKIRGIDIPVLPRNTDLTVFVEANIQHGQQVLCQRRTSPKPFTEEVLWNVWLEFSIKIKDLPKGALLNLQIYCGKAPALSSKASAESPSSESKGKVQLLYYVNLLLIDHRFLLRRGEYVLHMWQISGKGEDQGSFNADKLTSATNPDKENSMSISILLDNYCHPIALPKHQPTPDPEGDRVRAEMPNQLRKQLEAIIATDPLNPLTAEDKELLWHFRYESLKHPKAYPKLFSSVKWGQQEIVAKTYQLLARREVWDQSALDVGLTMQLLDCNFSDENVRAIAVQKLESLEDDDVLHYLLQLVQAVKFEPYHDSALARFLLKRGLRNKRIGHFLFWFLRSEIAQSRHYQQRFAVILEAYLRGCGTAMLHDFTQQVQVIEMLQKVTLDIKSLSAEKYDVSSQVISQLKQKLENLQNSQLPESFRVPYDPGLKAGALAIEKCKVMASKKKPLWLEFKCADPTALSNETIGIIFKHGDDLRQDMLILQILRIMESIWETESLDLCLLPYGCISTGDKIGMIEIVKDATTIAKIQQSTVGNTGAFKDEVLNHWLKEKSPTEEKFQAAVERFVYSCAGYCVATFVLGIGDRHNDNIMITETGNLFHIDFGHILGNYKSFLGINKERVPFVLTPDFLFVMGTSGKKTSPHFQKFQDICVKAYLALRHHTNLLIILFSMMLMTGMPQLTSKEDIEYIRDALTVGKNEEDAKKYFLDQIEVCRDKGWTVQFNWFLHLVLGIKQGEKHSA
Chain of Casein Kinase 2 (P68400 whole entry): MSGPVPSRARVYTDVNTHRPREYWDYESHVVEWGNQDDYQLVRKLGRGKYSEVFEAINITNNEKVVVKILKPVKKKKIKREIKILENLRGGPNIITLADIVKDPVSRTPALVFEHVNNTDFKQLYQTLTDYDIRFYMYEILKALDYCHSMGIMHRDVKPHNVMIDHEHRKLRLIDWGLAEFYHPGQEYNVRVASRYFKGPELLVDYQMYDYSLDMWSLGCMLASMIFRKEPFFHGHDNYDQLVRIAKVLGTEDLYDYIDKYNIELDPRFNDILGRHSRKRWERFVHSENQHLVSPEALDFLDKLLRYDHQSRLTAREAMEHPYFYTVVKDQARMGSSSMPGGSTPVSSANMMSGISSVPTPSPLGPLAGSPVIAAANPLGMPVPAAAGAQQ
Chain of p70^S6 (P23443 24-525 limits assumed): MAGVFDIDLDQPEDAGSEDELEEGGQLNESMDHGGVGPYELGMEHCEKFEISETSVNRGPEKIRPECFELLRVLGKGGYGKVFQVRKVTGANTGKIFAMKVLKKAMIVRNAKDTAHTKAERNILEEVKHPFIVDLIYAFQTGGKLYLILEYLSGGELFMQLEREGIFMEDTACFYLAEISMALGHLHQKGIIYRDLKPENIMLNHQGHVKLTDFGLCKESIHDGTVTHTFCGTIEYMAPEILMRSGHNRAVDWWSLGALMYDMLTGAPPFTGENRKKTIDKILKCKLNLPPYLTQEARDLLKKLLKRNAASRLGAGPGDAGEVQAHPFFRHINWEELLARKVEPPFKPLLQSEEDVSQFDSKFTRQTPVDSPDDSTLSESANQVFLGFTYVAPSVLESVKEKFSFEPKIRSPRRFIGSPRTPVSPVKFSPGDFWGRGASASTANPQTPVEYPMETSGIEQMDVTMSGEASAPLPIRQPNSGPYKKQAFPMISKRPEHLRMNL

For `Cc1cc(C(C)Nc2ccccc2)c2nc(N3CCOCC3)cc(=O)n2c1` (racemic) [TGX-221, (±)-7-methyl-2-morpholin-4-yl-9-(1-phenylaminoethyl)-pyrido[1,2-a]pyrimidin-4-one], the IC50 in series [1] was 0.05 to 0.1 µM; in [3], above 10 µM; in series [4] (Table I, read-out: inhibitory concentration, gamma), above 5 µM; in [4] (read-out: IC50 (μM), p110γ-PI3K), above 10 µM; in series [5] it was above 10 µM; in series [6] it was above 10 µM. Further, the IC50 in series [7] and in [10] was above 10 µM in each case. Also, in series [2] (both the Folts and electrolytic studies), the “baseline arterial blood pressure, heart rate or carotid artery blood flow” value is “no effect”. The occlusive thrombus formation result in series [2] (rats, 2 mg/kg in PG 5 minutes before injury, in words, 90% occlusion rate in vehicle-treated rats) is listed as “completely prevented”. The “carotid blood flow volume over the 60 min post-injury period” value in [2] (rats, 2 mg/kg, in words) is recorded as “preserving; also recorded: preserved”. For the same molecule, the “γ-independent GPIb calcium signalling” value in series [8] (0.5 μM) is “did not inhibit”. Also, the “platelet responses to accelerated shear” value in [8] (vWf matrix, shear rate gradient up to 10,000 s^−1 over 1 s) was “Eliminates Platelet Responses to Accelerated Shear”. Besides, the “integrin αIIbβ3 activation (PAC-1 binding)” value in series [9] is reported as “unaffected”.
